Here are results for 25 molecules from US9144557B2, “Hematopoietic growth factor mimetic small molecule compounds and their uses” (Ligand Pharmaceuticals Inc., priority 2009, dated 2015).

The assay relates to UT7/EPO Cell line. In words: Cell Proliferation Assay (UT7/EPO, ViaLight Plus). The assay is classed as cell-based, human. The following applies: proliferative effect; compounds at 10 uM; UT7/EPO cells starved of EPO overnight; 72 hours at 37° C.; ViaLight Plus kit. The gist of the method: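 UT7/EPO human leukemia cells (endogenous EPO receptor, EPO-dependent growth) were EPO-starved overnight, then exposed to compounds at 10 uM for 72 hours at 37° C. Proliferation was read out by ATP-based luminescence (ViaLight Plus).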

`O=C(Nc1ccc(Nc2ccc(NC(=O)c3ccc4[nH]cnc4c3)cc2)cc1)c1ccc2[nH]cnc2c1` [Compound 590, N,N′-(4,4′-Azanediylbis(4,1-phenylene))bis(1H-benzimidazole-5-carboxamide)]: the “Activity (%)” value is 12%. With `O=C(Nc1ccc(C(=O)c2ccc(NC(=O)c3ccno3)cc2)cc1)c1ccc(N2CCOCC2)cc1` [Compound 600, 4-Morpholino-N-(4-(4-(isoxazole-5-carboxamido)benzoyl)phenyl)benzamide], the “Activity (%)” value came out at 11%.

With `O=C(Nc1ccc(C(=O)c2ccc(NC(=O)c3c[nH]nn3)cc2)cc1)c1ccc(N2CCOCC2)cc1` [Compound 610, 4-Morpholino-N-(4-(4-(1,2,3-triazole-4-carboxamido)benzoyl)phenyl)benzamide], the “Activity (%)” value stood at 14%. `Cc1cc(C(=O)Nc2ccc(C(=O)c3ccc(NC(=O)c4ccc(N5CCOCC5)cc4)cc3)cc2)cc(Cl)n1` [Compound 620, 4-Morpholino-N-(4-(4-(2-chloro-6-methylpyridine-4-carboxamido)benzoyl)phenyl)benzamide]: the “Activity (%)” value is reported as 18%. For `O=C(Nc1ccc(N2CCOCC2)cc1)c1ccc(-c2nc3ccc(OCc4ccccc4)cc3[nH]2)cc1` [Compound 639, 4-(6-Benzyloxy-1H-benzo[d]imidazol-2-yl)-N-(4-morpholinophenyl)benzamide], the “Activity (%)” value is on record as 15%.

With `O=C(Nc1ccc2cc[nH]c2c1)c1ccc(-c2nc3ccc(-c4cccnc4)cc3[nH]2)cc1` [Compound 650, N-(1H-indol-6-yl)-4-(6-(pyridin-3-yl)-1H-benzo[d]imidazol-2-yl)-benzamide], the “Activity (%)” value worked out at 13%. Consider `Cc1noc(COc2ccc3nc(-c4ccc(C(=O)Nc5ccc6cc[nH]c6c5)cc4)[nH]c3c2)n1` [Compound 660, 4-(6-((3-Methyl-1,2,4-oxadiazol-5-yl)methoxy)-1H-benzo[d]imidazol-2-yl)-N-(1H-indol-6-yl)benzamide], for which the “Activity (%)” value amounted to 14%.

Consider `COCCOc1ccc2nc(-c3ccc(C(=O)Nc4ccc(N5CCC(O)CC5)cc4)cc3)[nH]c2c1` [Compound 670, N-(4-(4-Hydroxypiperidin-1-yl)phenyl)-4-(6-(2-methoxyethoxy)-1H-benzo[d]imidazol-2-yl)benzamide], for which the “Activity (%)” value was 8%. `O=C(C1CC1)N1CCN(c2ccc(-c3nc4ccc(-c5ccc(O)cc5)cc4[nH]3)cc2)CC1` [Compound 680, Cyclopropyl(4-(4-(6-(4-hydroxyphenyl)-1H-benzo[d]imidazol-2-yl)phenyl)piperazin-1-yl)methanone]: the “Activity (%)” value is given as 10%.

As for `O=C(Nc1ccc(C(=O)c2ccc(NC(=O)c3cccc4cc[nH]c34)cc2)cc1)c1ccc(N2CCC(O)CC2)cc1` [Compound 690, N-(4-(4-(4-(4-Hydroxypiperidin-1-yl)benzamido)benzoyl)phenyl)-1H-indolyl-7-carboxamide], the “Activity (%)” value worked out at 16%. For `Cn1nccc1C(=O)Nc1ccc(C(=O)c2ccc(NC(=O)c3ccc(N4CCC(O)CC4)cc3)cc2)cc1` [Compound 720, N-(4-(4-(4-(4-Hydroxypiperidin-1-yl)benzamido)benzoyl)phenyl)-1-methyl-1H-pyrazole-5-carboxamide], the “Activity (%)” value is on record as 16%. As to `Cn1cccc1C(=O)Nc1ccc(C(=O)c2ccc(NC(=O)c3ccc(N4CCC(O)CC4)cc3Cl)cc2)cc1` [Compound 730, N-(4-(4-(2-Chloro-4-(4-hydroxypiperidin-1-yl)benzamido)benzoyl)phenyl)-1-methyl-1H-pyrrole-2-carboxamide], the “Activity (%)” value is recorded as 18%.

Turning to `Cn1cccc1C(=O)Nc1ccc(N(C(=O)c2cccn2C)c2ccc(NC(=O)c3ccc(N4CCC(O)CC4)cc3)cc2)cc1` [Compound 745], the “Activity (%)” value was 17%. Under `Cc1ccc(C(=O)Nc2ccc(Nc3ccc(NC(=O)c4ccc(N5CCC(O)CC5)cc4)cc3)c(F)c2)n1C` [Compound 760, N-(3-Fluoro-4-((4-(4-(4-hydroxypiperidin-1-yl)benzamido)phenyl)amino)phenyl)-1,5-dimethyl-1H-pyrrole-2-carboxamide] stands 21%; under `O=C(Nc1ccc(Nc2ccc(NC(=O)c3ccc4c(ccn4CCO)c3)cc2)cc1)c1ccc(N2CCC(O)CC2)cc1` [Compound 775], 22%; under `Cc1cc(C(=O)Nc2ccc(Nc3ccc(NC(=O)c4ccc(N5CCC(O)CC5)cc4)cc3)cc2)c(C)[nH]1` [Compound 790], 18%. Turning to `Cn1cccc1C(=O)Nc1ccc(Nc2ccc(NC(=O)c3ccc(N4CCC(CO)CC4)cc3)cc2)cc1` [Compound 800, N-(4-((4-(4-(4-Hydroxymethylpiperidin-1-yl)benzamido)phenyl)amino)phenyl)-1-methyl-1H-pyrrole-2-carboxamide], the “Activity (%)” value was 23%. Under `Cn1cccc1C(=O)Nc1ccc(Nc2ccc(NC(=O)c3ccc(N4CCC(O)CC4)c(F)c3)cc2)cc1` [Compound 815, N-(4-((4-(3-Fluoro-4-(4-hydroxypiperidin-1-yl)benzamido)phenyl)amino)phenyl)-1-methyl-1H-pyrrole-2-carboxamide] stands 17%; under `CCOC(=O)Cn1c(Cl)ccc1C(=O)Nc1ccc(Nc2ccc(NC(=O)c3ccc(N4CCC(O)CC4)cc3)cc2)cc1` [Compound 830, Ethyl 2-(2-chloro-5-((4-((4-(4-(4-hydroxypiperidin-1-yl)benzamido)phenyl)amino)phenyl)carbamoyl)-1H-pyrrol-1-yl)acetate], 15%; under `O=C(Nc1ccc(Nc2ccc(NC(=O)c3cc[nH]c3)cc2)c(F)c1)c1ccc(N2CCC(O)CC2)cc1` [Compound 860, N-(4-((2-Fluoro-4-(4-(4-hydroxypiperidin-1-yl)benzamido)phenyl)amino)phenyl)-1H-pyrrole-3-carboxamide], 17%. Regarding `N#Cc1cc(NC(=O)c2ccc(N3CCC(C(F)(F)F)CC3)cc2)ccc1Nc1ccc(NC(=O)c2cc[nH]c2)cc1` [Compound 885, N-(4-((2-Cyano-4-(4-(4-trifluoromethylpiperidin-1-yl)benzamido)phenyl)amino)phenyl)-1H-pyrrole-3-carboxamide], the “Activity (%)” value stood at 21%. As for `CCn1c(C)ccc1C(=O)Nc1ccc(Nc2ccc(NC(=O)c3ccc(N4CCC(O)CC4)cc3)cc2)cc1` [Compound 900], the “Activity (%)” value is on record as 24%. On to `Cn1cccc1C(=O)Nc1ccc(Oc2ccc(NC(=O)c3ccc(N4CCC(O)CC4)cc3)cc2)cc1` [Compound 915, N-(4-(4-(4-(4-Hydroxypiperidin-1-yl)benzamido)phenoxy)phenyl)-1-methyl-1H-pyrrole-2-carboxamide], for which the “Activity (%)” value is recorded as 17%. With `Cn1ccc2cc(C(=O)Nc3ccc4c(cnn4-c4ccc(NC(=O)C5CC5)cc4)c3)ccc21` [Compound 930, N-(1-(4-(Cyclopropanecarboxamido)phenyl)-1H-indazol-5-yl)-1-methyl-1H-indole-5-carboxamide], the “Activity (%)” value stood at 12%.

For `O=C(Nc1ccc(N2CCC(O)CC2)cc1)c1ccc2c(cnn2-c2ccc(NC(=O)C3CC3)cc2)c1` [Compound 945, 1-(4-(Cyclopropanecarboxamido)phenyl)-N-(4-(4-hydroxypiperidin-1-yl)phenyl)-1H-indazole-5-carboxamide], the “Activity (%)” value worked out at 10%.
